Usually IC50 stands for the concentration that inhibits the measured activity by half. Low readings indicate greater potency, high ones weaker potency.

The values below come from BindingDB's records for patent US20250368640 (Biofront, 2025).

In experiment [1] the target is Mitogen-activated protein kinase kinase kinase kinase 1 (Homo sapiens, UniProt Q92918). In words: HPK1 Enzyme Inhibition Assay. How it is done: The compound was dissolved in 100% DMSO at the concentration of 10 mM. The HPK1 protein was purchased from Signal Chem (M23-11G-10). 2.5 μL per well of 2×HPK1 protein was added to assay plate containing the test compound, centrifuged at 1500 rpm for 1 minute, and then incubated at 25° C. for 60 minutes. MBP protein was purchased from Signal Chem (M42-51N) and ATP was purchased from Promega (V9102). The two were added 2.5 μL per well mixture of 2×MBP (0.2 ug/ul) and ATP (20 μM), centrifuged at 1500 rpm for 1 minute, then incubated at 25° C. for 60 minutes. Then added 5 μL of ADP-Glo from Promega (V9102) to the assay plate and depleted the unconsumed ATP for 60 minutes. Then centrifuged at 1500 rpm for 1 minute and incubated at 25° C. for 60 minutes. Finally, 10 μL of the kinase assay reagent from Promega (V9102) was added to the assay plate to convert ADP to ATP, centrifuged at 1500 rpm for 1 minute, incubate at 25° C. for 40 minutes. After 40 minutes incubation, the […] was determined.
Mitogen-activated protein kinase kinase kinase kinase 1, sequence (Q92918 whole entry): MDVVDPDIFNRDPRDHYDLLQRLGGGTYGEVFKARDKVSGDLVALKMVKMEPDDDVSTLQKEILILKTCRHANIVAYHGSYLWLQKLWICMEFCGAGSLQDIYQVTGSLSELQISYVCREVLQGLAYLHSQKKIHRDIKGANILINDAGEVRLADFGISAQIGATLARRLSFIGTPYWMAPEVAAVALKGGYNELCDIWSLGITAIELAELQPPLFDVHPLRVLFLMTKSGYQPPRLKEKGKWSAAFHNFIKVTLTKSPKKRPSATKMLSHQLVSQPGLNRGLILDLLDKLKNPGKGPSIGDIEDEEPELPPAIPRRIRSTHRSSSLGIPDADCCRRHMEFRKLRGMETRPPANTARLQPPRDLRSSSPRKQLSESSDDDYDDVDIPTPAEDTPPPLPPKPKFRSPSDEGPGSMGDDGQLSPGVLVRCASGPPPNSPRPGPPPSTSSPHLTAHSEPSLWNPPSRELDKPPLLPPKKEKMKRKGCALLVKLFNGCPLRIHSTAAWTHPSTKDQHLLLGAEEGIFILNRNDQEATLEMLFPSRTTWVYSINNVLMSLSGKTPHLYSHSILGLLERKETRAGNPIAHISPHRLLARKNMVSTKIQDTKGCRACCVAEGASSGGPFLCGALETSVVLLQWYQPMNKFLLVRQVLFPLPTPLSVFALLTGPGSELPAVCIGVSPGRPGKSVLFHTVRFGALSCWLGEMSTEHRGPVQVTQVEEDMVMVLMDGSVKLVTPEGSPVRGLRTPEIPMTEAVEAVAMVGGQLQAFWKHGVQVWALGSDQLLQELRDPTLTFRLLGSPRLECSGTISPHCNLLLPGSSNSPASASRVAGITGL

Another experiment deals with T1, Aurora kinase A (Homo sapiens, UniProt O14965).
T1 sequence (O14965 whole entry): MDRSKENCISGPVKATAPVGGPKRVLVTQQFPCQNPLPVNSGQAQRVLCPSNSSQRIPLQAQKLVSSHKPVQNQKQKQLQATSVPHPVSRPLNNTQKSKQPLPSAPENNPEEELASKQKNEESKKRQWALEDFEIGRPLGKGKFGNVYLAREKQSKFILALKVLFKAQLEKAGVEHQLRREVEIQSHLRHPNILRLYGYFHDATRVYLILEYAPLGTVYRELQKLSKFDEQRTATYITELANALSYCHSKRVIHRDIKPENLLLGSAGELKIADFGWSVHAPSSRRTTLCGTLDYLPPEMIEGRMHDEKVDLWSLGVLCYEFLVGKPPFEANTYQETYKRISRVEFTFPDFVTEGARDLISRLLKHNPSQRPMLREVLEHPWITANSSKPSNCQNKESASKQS
The experiment in a line: Aurora A Enzyme Inhibition Assay. How it is done:
The compound was dissolved in 100% DMSO at the concentration of 10 mM. The Aurora A protein was purchased from Carna (05-101). 10 μL per well of 2.5×Aurora A protein was added to assay plate containing the test compound, centrifuged at 1000 rpm for 1 minute, and then incubated at 25° C. for 10 minutes. Peptide 21 was purchased from GL Biochem (116370) and ATP was purchased from Promega (V9102). The two were added 15 μL per well mixture of 1.67× peptide 21 (final conc. is 3 μM) and ATP (final conc. is 14.58 μM), centrifuged at 1000 rpm for 1 minute, then incubated at 25° C. for 40 minutes. Then added 30 μL of stop buffer (100 mM HEPES pH7.5, 0.015% Brij-35, 0.2% Coating Reagent 3, 50 mM EDTA) to the assay plate and centrifuged at 1000 rpm for 1 minute. the product was determined.

On to `CCc1c[nH]c2ncc(-c3cccc(N4CCCN(CCN5CC(c6ccc7c(c6)CN(C6CCC(=O)NC6=O)C7=O)C5)C4=O)c3)c(Cl)c12` (centres undefined), for which the IC50 in experiment [1] came to 1.1 nM; against Aurora kinase A, 10.1 nM.
On the same counts, the results for `CCc1c[nH]c2ncc(-c3cccc(N4CCCN(CCN5CC(c6ccc7c(c6)C(=O)N(C6CCC(=O)NC6=O)C7)C5)C4=O)c3)c(Cl)c12` (centres undefined) [US20250368640, Example 1] are 0.76 nM and 14.3 nM.
